From ChEMBL document CHEMBL2029245, “Binding evaluation of fragment-based scaffolds for probing allosteric enzymes” (J Med Chem, 2012)

target: T1, Glycogen phosphorylase, muscle form (Oryctolagus cuniculus, UniProt P00489); assay: Binding affinity to rabbit muscular GPa by NMR binding assay
T1 sequence (P00489 whole entry): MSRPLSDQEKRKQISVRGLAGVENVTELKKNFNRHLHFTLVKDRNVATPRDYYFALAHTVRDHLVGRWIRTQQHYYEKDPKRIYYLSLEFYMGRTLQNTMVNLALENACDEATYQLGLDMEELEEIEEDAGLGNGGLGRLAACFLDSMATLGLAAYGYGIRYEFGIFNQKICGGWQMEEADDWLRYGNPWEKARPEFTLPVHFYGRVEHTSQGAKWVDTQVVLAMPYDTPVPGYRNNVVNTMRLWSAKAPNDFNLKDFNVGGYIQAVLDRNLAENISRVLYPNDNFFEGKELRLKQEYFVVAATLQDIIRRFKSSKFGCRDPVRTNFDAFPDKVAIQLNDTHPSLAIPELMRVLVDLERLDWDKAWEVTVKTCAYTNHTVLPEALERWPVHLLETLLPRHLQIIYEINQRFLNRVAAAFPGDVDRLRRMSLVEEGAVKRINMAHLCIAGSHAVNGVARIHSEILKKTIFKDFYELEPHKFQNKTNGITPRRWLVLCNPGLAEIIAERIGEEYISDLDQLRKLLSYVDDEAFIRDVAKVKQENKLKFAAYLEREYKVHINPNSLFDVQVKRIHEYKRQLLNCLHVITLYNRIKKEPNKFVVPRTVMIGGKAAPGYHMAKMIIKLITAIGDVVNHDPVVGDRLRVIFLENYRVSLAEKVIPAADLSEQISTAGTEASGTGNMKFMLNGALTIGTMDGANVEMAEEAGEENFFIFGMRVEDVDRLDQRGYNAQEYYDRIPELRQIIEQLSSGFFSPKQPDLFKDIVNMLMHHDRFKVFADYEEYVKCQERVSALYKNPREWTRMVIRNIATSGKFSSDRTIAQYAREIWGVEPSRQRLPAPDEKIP

Row | SMILES | IC50
1 | O=C(CN1CCN(c2ccccc2)CC1)Nc1nccs1 | 96.9 µM
2 | Cc1cc(F)c(Sc2nccn2C)cc1C(=O)Nc1cccc(N)c1 | 2.7 µM
3 | Cc1cc(F)c(Sc2nccn2C)cc1C(=O)Nc1cccc(C#N)c1 | 9.9 µM

target: T2, Glycogen phosphorylase, liver form (Homo sapiens, UniProt P06737); assay: Binding affinity to human liver GPa by NMR binding assay
T2 sequence (P06737 whole entry): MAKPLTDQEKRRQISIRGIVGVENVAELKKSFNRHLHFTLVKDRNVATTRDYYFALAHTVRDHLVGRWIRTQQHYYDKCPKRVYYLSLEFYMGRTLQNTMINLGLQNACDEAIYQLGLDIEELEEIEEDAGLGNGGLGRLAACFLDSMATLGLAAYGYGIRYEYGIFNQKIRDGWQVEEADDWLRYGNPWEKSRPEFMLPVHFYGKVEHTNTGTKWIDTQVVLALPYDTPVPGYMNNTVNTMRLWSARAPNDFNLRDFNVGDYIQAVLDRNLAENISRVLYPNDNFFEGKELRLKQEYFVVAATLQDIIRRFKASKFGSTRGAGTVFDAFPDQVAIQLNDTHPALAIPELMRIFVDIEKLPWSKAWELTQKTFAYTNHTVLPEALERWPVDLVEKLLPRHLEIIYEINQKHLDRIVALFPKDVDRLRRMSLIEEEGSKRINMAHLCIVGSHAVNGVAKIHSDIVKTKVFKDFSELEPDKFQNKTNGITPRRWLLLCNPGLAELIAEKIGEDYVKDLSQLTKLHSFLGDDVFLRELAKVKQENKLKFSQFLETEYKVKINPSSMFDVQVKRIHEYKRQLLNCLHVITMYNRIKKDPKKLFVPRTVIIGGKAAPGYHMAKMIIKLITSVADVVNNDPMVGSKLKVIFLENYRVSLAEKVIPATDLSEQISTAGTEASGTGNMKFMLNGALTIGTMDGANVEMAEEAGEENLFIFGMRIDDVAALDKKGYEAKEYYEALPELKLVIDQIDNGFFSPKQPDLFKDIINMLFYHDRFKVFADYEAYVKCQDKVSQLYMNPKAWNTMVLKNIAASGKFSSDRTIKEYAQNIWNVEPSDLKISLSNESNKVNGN

Row | SMILES | IC50
4 | COCCNC(=O)c1c[nH]c2ccc(Cl)cc12 | 12.5 µM
5 | Nc1ccccc1C(=O)Nc1ccccc1Oc1ccc(C(=O)O)c(C(=O)O)c1 | 1.3 µM

target: T1, Glycogen phosphorylase, muscle form
Description: Binding affinity to rabbit muscular GPb by NMR binding assay

Row | SMILES | IC50
6 | O=C(NC(=O)c1cc2ccccc2[nH]1)N[C@@H]1O[C@H](CO)[C@@H](O)[C@H](O)[C@H]1O | 4 µM
7 | O=C1NCC(O)NC12O[C@H](CO)[C@@H](O)[C@H](O)[C@H]2O (stereo not given in full) | 59.8 µM
8 | O=C(O)c1ccccc1-n1cc(C(=O)O)c(=O)c2cc(Cc3c(F)cc(F)cc3Cl)c(Cl)cc21 | 0.024 µM
9 | Nc1ccccc1C(=O)Nc1ccccc1Oc1ccc(C(=O)O)c(C(=O)O)c1 | 0.9 µM
10 | Cc1cn([C@@H]2O[C@H](CO)[C@@H](O)[C@H](O)[C@H]2O)c(=O)[nH]c1=O | 6.6 µM
